This is an account of results in patent publication US20240368121A1, “ESTROGEN RECEPTOR DEGRADERS, PHARMACEUTICAL COMPOSITIONS THEREOF, AND THEIR THERAPEUTIC APPLICATIONS” (BioTheryX, Inc., priority 2021, published 2024).

One assay concerns MCF7 cells. As to the kind of experiment: Cell viability assay ([…]-GLO, 6-day treatment). The format is cell-based. Particulars: Homo sapiens, MCF7, 144 h; MCF-7 cells, 6 days, CTG; read-out: Inhibition of Cancerous Cells IC50 MCF-7. As for the experimental part: A compound provided herein was evaluated for its anticancer activity in MCF7 and T47D cells. MCF7 and T47D cells were cultured at 37° C. in a humidified 5% C02 environment in MEM or RPMI, supplemented with 10% FBS with insulin, respectively. The cells were plated in 384-well microplates at a density of 1,000 cells per well in their respective maintenance media. The cells were treated with the compound by a 10-point dose response curve for 6 days, during which, the medium and compound were refreshed once. After the 6-day treatment, the cell viability was assessed using […]-GLO (CTG) reagent. Luminescence was measured with a microplate reader.

The next assay deals with T1, ERα (Homo sapiens, UniProt P03372).
T1 construct: degrading an ERα in MCF-7 cells via a western blot; endogenous in cells; host or cells: MCF-7
T1 sequence (P03372 1-595): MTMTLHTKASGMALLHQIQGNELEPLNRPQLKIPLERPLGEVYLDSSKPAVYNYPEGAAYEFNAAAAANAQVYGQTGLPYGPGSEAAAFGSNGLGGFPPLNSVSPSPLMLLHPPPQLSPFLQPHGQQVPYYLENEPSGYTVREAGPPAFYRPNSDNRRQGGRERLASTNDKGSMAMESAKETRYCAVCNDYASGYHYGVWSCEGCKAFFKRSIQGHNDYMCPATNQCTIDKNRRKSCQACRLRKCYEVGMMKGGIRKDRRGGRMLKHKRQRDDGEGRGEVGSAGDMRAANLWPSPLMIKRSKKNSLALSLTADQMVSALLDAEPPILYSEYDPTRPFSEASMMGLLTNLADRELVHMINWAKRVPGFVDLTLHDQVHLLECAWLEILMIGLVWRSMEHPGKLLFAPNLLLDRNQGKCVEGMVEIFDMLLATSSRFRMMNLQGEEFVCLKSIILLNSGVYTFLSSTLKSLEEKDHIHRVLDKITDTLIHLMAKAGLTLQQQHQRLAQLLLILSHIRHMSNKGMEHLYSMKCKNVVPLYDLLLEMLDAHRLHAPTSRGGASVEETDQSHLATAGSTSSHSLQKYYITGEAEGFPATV
Kind of assay: Protein degradation assay: ERα in MCF-7 cells via western blot. The format is cell-based. The settings on record: 6 h; for ERα Protein Degradation 1 nM: 1 nM compound; for ERα Protein Degradation 10 nM: 10 nM compound; for ERα Protein Degradation 100 nM: 100 nM compound. As for the experimental part:
A compound provided herein was assessed for its activity in degrading an ERα in MCF-7 cells via a western blot. The MCF7 cells were cultured at 37° C. in a humidified 5% C02 environment in MEM supplemented with 10% FBS with insulin. The cells were seeded in 12-well plates at a density of 300,000 cells per well in maintenance media. Cells were treated with the compound at predetermined concentrations (e.g., 1 nM, 10 nM, 100 nM, and 1 μM) for 6 h. The cells were then washed in PBS and the whole cells were lysed in a cell lysis buffer and incubated for 15 minutes on ice. Cell debris was removed by high-speed centrifugation and the cleared whole cell lysates were prepared for further analysis by a western blot. The whole cell protein extracts were separated on SDS-polyacrylamide gels, transferred to nitrocellulose membranes, and probed with primary antibodies, including anti-ERα antibody and GAPDH antibody for loading control. The membranes were subsequently washed and probed with secondary antibodies for chemiluminescence, followed by imaging on a BIORAD CHEMIDOC Imaging System. The results are summarized in Table 2, where “A” represents a percentage degradation value of no less than 50%; “B” represents a percentage degradation value of less than 50% and no less than 25%; “C” represents a percentage degradation value of less than 25% and no less than 10%; and “D” represents a percentage degradation value of less than 10%.
Background: Immunoblotting shows a protein as a band on a membrane.

A word on the IC50: it is the midpoint of a concentration-inhibition curve. In the case of `O=C1CCN(c2ccc(OCC(=O)N3CCN(CCCCOc4ccc([C@H]5c6ccc(O)cc6CC[C@H]5c5ccccc5)cc4)CC3)cc2)C(=O)N1` [Compound B45, 1-(4-(2-(4-(4-(4-((1S,2R)-6-Hydroxy-2-phenyl-1,2,3,4-tetrahydronaphthalen-1-yl)phenoxy)butyl)piperazin-1-yl)-2-oxoethoxy)phenyl)dihydropyrimidine-2,4(1H,3H)-dione], the IC50 in the assay on MCF7 cells worked out at 88 nM. Moreover, at ERα, the “ERα Protein Degradation 1 nM” value was “C (a percentage degradation value of less than 25% and no less than 10%)”; the “ERα Protein Degradation 10 nM” value is “C (a percentage degradation value of less than 25% and no less than 10%)”; the “ERα Protein Degradation 100 nM” value was “C (a percentage degradation value of less than 25% and no less than 10%)”.
Turning to `Cn1nc([C@@H]2CCC(=O)NC2=O)c2ccc(OCC(=O)N3CCN(CCCCOc4ccc([C@@H]5c6ccc(O)cc6CC[C@@H]5c5ccccc5)cc4)CC3)cc21` [Compound B23, (S)-3-(6-(2-(4-(4-(4-((1R,2S)-6-Hydroxy-2-phenyl-1,2,3,4-tetrahydronaphthalen-1-yl)phenoxy)butyl)piperazin-1-yl)-2-oxoethoxy)-1-methyl-1H-indazol-3-yl)piperidine-2,6-dione], the IC50 with MCF7 cells was found to be 0.22 nM. In addition, on ERα, the “ERα Protein Degradation 1 nM” value was “B (a percentage degradation value of less than 50% and no less than 25%)”; the “ERα Protein Degradation 10 nM” value is “B (a percentage degradation value of less than 50% and no less than 25%)”; the “ERα Protein Degradation 100 nM” value was “D (a percentage degradation value of less than 10%)”.
With `Cc1c(-c2ccc(O)cc2)n(Cc2ccc(N3CCC(CCN4CCN(c5ccc6c(C7CCC(=O)NC7=O)nn(C)c6c5)CC4)CC3)cc2)c2ccc(O)cc12` (stereo not shown) [Compound E18, 3-(6-(4-(2-(1-(4-((5-Hydroxy-2-(4-hydroxyphenyl)-3-methyl-1H-indol-1-yl)-methyl)phenyl)piperidin-4-yl)ethyl)piperazin-1-yl)-1-methyl-1H-indazol-3-yl)piperidine-2,6-dione], the IC50 in the assay on MCF7 cells was determined as 0.36 nM.
For the molecule `Cc1c(-c2ccc(O)cc2)n(Cc2ccc(N3CCC(CN4CCN(c5ccc6c(C7CCC(=O)NC7=O)nn(C)c6c5)CC4)CC3)cc2)c2ccc(O)cc12` (stereo not shown) [Compound E17, 3-(6-(4-((1-(4-((5-Hydroxy-2-(4-hydroxyphenyl)-3-methyl-1H-indol-1-yl)-methyl)phenyl)piperidin-4-yl)methyl)piperazin-1-yl)-1-methyl-1H-indazol-3-yl)piperidine-2,6-dione], the IC50 in the assay with MCF7 cells was 0.8 nM.
Consider `Cn1nc([C@H]2CCC(=O)NC2=O)c2ccc(OCC(=O)N3CCN(CCCCOc4ccc([C@@H]5c6ccc(O)cc6CC[C@@H]5c5ccccc5)cc4)CC3)cc21` [Compound B26, (R)-3-(6-(2-(4-(4-(4-((1R,2S)-6-Hydroxy-2-phenyl-1,2,3,4-tetrahydronaphthalen-1-yl)phenoxy)butyl)piperazin-1-yl)-2-oxoethoxy)-1-methyl-1H-indazol-3-yl)piperidine-2,6-dione], for which the IC50 in the assay on MCF7 cells was determined as 0.13 nM.
In the case of `CC1(Cc2ccc(OCCCCN3CCN(C(=O)COc4cccc5c4CN(C4CCC(=O)NC4=O)C5=O)CC3)cc2)C(c2ccc(O)cc2)=Nc2ccc(O)cc21` (stereo not shown) [Compound D1, 3-(4-(2-(4-(4-(4-((5-hydroxy-2-(4-hydroxyphenyl)-3-methyl-3H-indol-3-yl)-methyl)phenoxy)butyl)piperazin-1-yl)-2-oxoethoxy)-1-oxoisoindolin-2-yl)piperidine-2,6-dione], at ERα, the “ERα Protein Degradation 1 nM” value was “D (a percentage degradation value of less than 10%)”, the “ERα Protein Degradation 10 nM” value was “D (a percentage degradation value of less than 10%)” and the “ERα Protein Degradation 100 nM” value is on record as “D (a percentage degradation value of less than 10%)”.
`O=C1CCC(N2Cc3cc(C4CCN(CCCCOc5ccc([C@H]6c7ccc(O)cc7CC[C@H]6c6ccccc6)cc5)CC4)c(F)cc3C2=O)C(=O)N1` (stereo partly drawn) [Compound A13, 3-(6-Fluoro-5-(1-(4-(4-((1S,2R)-6-hydroxy-2-phenyl-1,2,3,4-tetrahydro-naphthalen-1-yl)phenoxy)butyl)piperidin-4-yl)-1-oxoisoindolin-2-yl)piperidine-2,6-dione]: at ERα, the “ERα Protein Degradation 1 nM” value was “C (a percentage degradation value of less than 25% and no less than 10%)”; the “ERα Protein Degradation 10 nM” value was “B (a percentage degradation value of less than 50% and no less than 25%)”; the “ERα Protein Degradation 100 nM” value was “C (a percentage degradation value of less than 25% and no less than 10%)”.
In the case of `CC1(Cc2ccc(OCCCCN3CCN(c4ccc5c(c4)CN(C4CCC(=O)NC4=O)C5=O)CC3)cc2)C(c2ccc(O)cc2)=Nc2ccc(O)cc21` (stereo not shown) [Compound D2, 3-(5-(4-(4-(4-((5-Hydroxy-2-(4-hydroxyphenyl)-3-methyl-3H-indol-3-yl)-methyl)phenoxy)butyl)piperazin-1-yl)-1-oxoisoindolin-2-yl)piperidine-2,6-dione], on ERα, the “ERα Protein Degradation 1 nM” value was “D (a percentage degradation value of less than 10%)”, the “ERα Protein Degradation 10 nM” value was “D (a percentage degradation value of less than 10%)” and the “ERα Protein Degradation 100 nM” value is listed as “D (a percentage degradation value of less than 10%)”.
With `O=C1CCC(N2Cc3c(cc(F)cc3C3CCN(CCCCOc4ccc([C@H]5c6ccc(O)cc6CC[C@H]5c5ccccc5)cc4)CC3)C2=O)C(=O)N1` (stereo partly drawn) [Compound A12, 3-(6-Fluoro-4-(1-(4-(4-((1S,2R)-6-hydroxy-2-phenyl-1,2,3,4-tetrahydro-naphthalen-1-yl)phenoxy)butyl)piperidin-4-yl)-1-oxoisoindolin-2-yl)piperidine-2,6-dione], at ERα, the “ERα Protein Degradation 1 nM” value was “C (a percentage degradation value of less than 25% and no less than 10%)”; the “ERα Protein Degradation 10 nM” value is “C (a percentage degradation value of less than 25% and no less than 10%)”; the “ERα Protein Degradation 100 nM” value was “C (a percentage degradation value of less than 25% and no less than 10%)”.
Take `Cc1c(-c2ccc(O)cc2)n(Cc2ccc(N3CCC(CN4CCN(C(=O)COc5ccc6c(C7CCC(=O)NC7=O)nn(C)c6c5)CC4)CC3)cc2)c2ccc(O)cc12` (stereo not shown) [Compound E15, 3-(6-(2-(4-((1-(4-((5-hydroxy-2-(4-hydroxyphenyl)-3-methyl-1H-indol-1-yl)-methyl)phenyl)piperidin-4-yl)methyl)piperazin-1-yl)-2-oxoethoxy)-1-methyl-1H-indazol-3-yl)-piperidine-2,6-dione]: in the assay with MCF7 cells, the IC50 was found to be 0.27 nM.
Take `CC1(Cc2ccc(OCCCCN3CCN(C(=O)COc4ccc(N5CCC(=O)NC5=O)cc4)CC3)cc2)C(c2ccc(O)cc2)=Nc2ccc(O)cc21` (stereo not shown) [Compound D9, 1-(4-(2-(4-(4-(4-((5-Hydroxy-2-(4-hydroxyphenyl)-3-methyl-3H-indol-3-yl)-methyl)phenoxy)butyl)piperazin-1-yl)-2-oxoethoxy)phenyl)dihydropyrimidine-2,4(1H,3H)-dione]: at ERα, the “ERα Protein Degradation 1 nM” value is given as “D (a percentage degradation value of less than 10%)”, the “ERα Protein Degradation 10 nM” value is recorded as “D (a percentage degradation value of less than 10%)” and the “ERα Protein Degradation 100 nM” value is reported as “D (a percentage degradation value of less than 10%)”.
In the case of `O=C1CCC(N2Cc3c(csc3C3CCN(CCCCCCOc4ccc([C@@H]5c6ccc(O)cc6CC[C@@H]5c5ccccc5)cc4)CC3)C2=O)C(=O)N1` (stereo partly drawn) [Compound A18, 3-(1-(1-(6-(4-((1R,2S)-6-Hydroxy-2-phenyl-1,2,3,4-tetrahydronaphthalen-1-yl)-phenoxy)hexyl)piperidin-4-yl)-4-oxo-4H-thieno[3,4-c]pyrrol-5(6H)-yl)piperidine-2,6-dione], in the assay with MCF7 cells, the IC50 was 0.28 nM.
